pIC50: −log10 of the molar value. Several values for one entry are separate records, joined by “and”; a condition that tells them apart may be missing. Equal values may be shown once. Some results are limits rather than exact numbers.

The values that follow come from patent publication US9067966B2, “Lupeol-type triterpene derivatives as antivirals” (priority 2009, dated 2015).

Type in all cases: cell-based
Series [1] can be described thus: in vitro. The note with it: human. The protocol:
(§1) Compound was dissolved in DMSO to make 30 mM stock. Then the 30 mM stock was further diluted to 4 mM using DMSO. The 4 mM stock was used as the top concentration to carry out an 11-point, 3-fold dilution scheme using DMSO in a 96-well plate to make the compound dose plate. Compounds in the dose plate were transferred to a new 96-well plate (working plate) containing PBS with 0.05% pluronic acid. From this working plate the compound solution was transferred to the 384-well assay plates.
For the cytotoxicity assay, the same amount of PBMC cells as in the antivirus assay but without the HIV-1 virus, was added to the cytotoxicity plates. The cytotoxicity was measured by a CellTiter-Glo cell viability assay (Promega).

Series [2] has as its system HIV-1 strain CNHN24. Put plainly: Anti-HIV-1 luciferase indicator assay in PBMC cells, CNHN24. The note with it: Human immunodeficiency virus 1, viral strain CNHN24. How it is done:
as §1
(§2) Control compounds for cpd control wells were prepared and added to assay plates individually.
(§3) PBMC cells were isolated from human whole blood using Histopaque-1077 (Sigma, #10771) and frozen down and kept in liquid nitrogen tank. Two days before the assay PBMC was recovered and cultured in medium containing PHA-P (Sigma, #L1668). On the day of assay PBMC cells were pelleted down and resuspended in medium containing IL-2 (Sigma, #I7908), then the cells were mixed with HIV-1 strain NL4-3, MOI=0.01 (or IIIB, or CNHN24) and the cell/virus mixture was added to the aforementioned antivirus assay plates. […] The expression level of luciferase was related to HIV-1 infectivity and was measured by Bright-Glo kit (Promega).

The nature of series [3]: in vitro. Particulars: human, CC50.
Series [4] deals with HIV-1 strain CNHN24. Put plainly: Anti-HIV-1 luciferase indicator assay in MT2 cells, CNHN24. Particulars: viral strain CNHN24; for pIC50: read-out: IC50.
Series [5] deals with HIV-1 strain IIIB. Put plainly: Anti-HIV-1 luciferase indicator assay in PBMC cells, IIIB. Particulars: Human immunodeficiency virus 1, IIIB, viral strain II B. How it is done:
as §1, §2, §3

For series [6], the system named is HIV-1 strain NL4-3. Put plainly: Anti-HIV-1 luciferase indicator assay in MT2 cells, NL4-3. Particulars: viral strain NL4-3.
Series [7] relates to HIV-1 strain IIIB. Put plainly: Anti-HIV-1 luciferase indicator assay in MT2 cells, IIIB. The note with it: viral strain II B; for pIC50: read-out: IC50.
Series [8] relates to HIV-1 strain NL4-3. Put plainly: Anti-HIV-1 luciferase indicator assay in PBMC cells, NL4-3. The note with it: Human immunodeficiency virus 1, NL43, viral strain NL4-3. The protocol: as §1, §2, §3
Another series has as its system MT2 cells. Put plainly: in vitro. The note with it: human.
[9] abbreviates: Human immunodeficiency virus 1, MT2, MT2 cells.
Setting [10] is: Human immunodeficiency virus 1, IIIB, MT2, MT2 cells.

The term CC50 denotes the concentration that lowers cell viability or growth by half. A higher CC50 goes with lower toxicity to the cells. A word on the pIC50: it is the IC50 on a negative log10 scale, so that one unit is a factor of ten. In the case of `C=C(C)[C@@H]1CC[C@]2(C(=O)N[C@@H]3C[C@H](C(=O)N4CCCC4)C3(C)C)CC[C@]3(C)[C@H](CC[C@@H]4[C@@]5(C)CC[C@H](OC(=O)CC(C)(C)C(=O)O)C(C)(C)[C@@H]5CC[C@]43C)[C@@H]12` [Example 45], the values for the CC50 in “in vitro [1]” and in “in vitro [3]” were > 20000 nM and 20000 nM, respectively. Moreover, the negative logarithm of the IC50 (pIC50) in the series with HIV-1 strain CNHN24 [2] is 7.66; in the series on HIV-1 strain CNHN24 [4] (setting [9]), 7.66; with HIV-1 strain IIIB [5] it was 7.60; in the series with HIV-1 strain NL4-3 [6] (Human immunodeficiency virus 1, NL43, MT2, MT2 cells, read-out: IC50) it was 7.77; in the series with HIV-1 strain IIIB [7] (setting [10]) it was 7.60; in the series with HIV-1 strain NL4-3 [8], 7.77. The “TI / Safety Index (CC50/IC50)” value amounted to 800 in the series with HIV-1 strain CNHN24 [4] (MT2 cells), 1177 in the series on HIV-1 strain NL4-3 [6] (MT2 cells) and 800 with HIV-1 strain IIIB [7] (MT2 cells).
Turning to `C=C(C)[C@@H]1CC[C@]2(C(=O)N[C@@H]3C[C@H](C(=O)N4CCCCC4)C3(C)C)CC[C@]3(C)[C@H](CC[C@@H]4[C@@]5(C)CC[C@H](OC(=O)CC(C)(C)C(=O)O)C(C)(C)[C@@H]5CC[C@]43C)[C@@H]12` [Example 48, 4-((1R,3aS,5aR,5bR,7aR,9S,11aR,11bR,13aR,13bR)-3a-((1R,3S)-2,2-dimethyl-3-(piperidine-1-carbonyl)cyclobutylcarbamoyl)-5a,5b,8,8,11a-pentamethyl-1-(prop-1-en-2-yl)icosahydro-1H-cyclopenta[a]chrysen-9-yloxy)-2,2-dimethyl-4-oxobutanoic acid], the CC50 is 20000 nM with MT2 cells and > 20000 nM in “in vitro [3]”. For the same molecule, the negative-log IC50 (pIC50) is 7.96 in the series on HIV-1 strain CNHN24 [4] (setting [9]); 7.68 in the series on HIV-1 strain CNHN24 [4] (MT2 cells); 8.05 in the series on HIV-1 strain NL4-3 [6] (Human immunodeficiency virus 1, NL43, MT2, MT2 cells); 7.77 with HIV-1 strain NL4-3 [6] (MT2 cells, read-out: IC50); 7.74 with HIV-1 strain IIIB [7] (setting [10]); 7.60 with HIV-1 strain IIIB [7] (MT2 cells). Further, the “TI / Safety Index (CC50/IC50)” value in the series on HIV-1 strain NL4-3 [6] (MT2 cells) is 2072 and 1176; in the series with HIV-1 strain IIIB [7] (MT2 cells), 1061 and 800.
